Experimental data published in patent publication US6538029B1, “Methods for treatment of renal cell carcinoma” (Cell Pathways, priority 2002, dated 2003).
Where a name gives a salt, the structure may show the parent alone. Read-outs that look alike come from different tables or passages of the source.

Tests used:
PDE10 from 786-O = PDE10 from 786-O (Homo sapiens, UniProt Q9Y233); assay: Inhibition and kinetics of PDE10 from 786-O (pooled fractions of the center peak); assay type: biochemical; settings: IC50 on PDE10 from 786-O (inhibition of cGMP PDE activity), pooled center-peak fractions; FIG. 8, 9
Procedure: (§1) Fractions were pooled from a 786-O profile from the center peak.
as §1
(§2) Protein assays were determined using the Bio-Rad DC Protein Assay. A nonlinear regression to the Michalis-Menten equation in Prism was used to determine the Km and Vmax.
as §2

786-O cells [1] = assay: Apoptosis on 786-O cells (Roche Cell Death Assay); assay type: cell-based, human; settings: Homo sapiens, 786-0; 48 hours with drug; read-out: IC50 for induction of apoptosis in the 786-O cell line
Procedure: Testing of PDE10-Inhibiting Compounds for Apoptosis on Renal Carcinoma (786-O) Cells. […] After 24 hours, the media was removed and the same media containing the drug was added to the cells (0.1% DMSO final concentration). After 48 hours, apoptosis was detected using the Roche Cell Death Assay.

786-O cells [2] = assay type: cell-based; settings: Homo sapiens, 786-0, 144 h; 6 days with drug, sulforhodamine B
Procedure: Testing of Neoplastic Cell Growth Inhibition of PDE10-Inhibiting Compounds on Renal Cell Carcinoma (786-O) Cells. […] After 24 hours, the media was removed, and the same media containing the drug was added to the cells (0.1% DMSO final concentration).

renal cell carcinoma = assay: Human clinical study in locally advanced or metastatic renal cell cancer; assay type: in vivo
Procedure: Patients were treated with 400 mg daily (200 mg twice daily) and continued at this dose throughout the study, provided no intolerable toxicity or disease progression occurred. Disease response was assessed by physical examination, chest x-ray and MRI or CT scan every eight weeks.
Nineteen patients with heavily pre-treated advanced, progressive renal cell carcinoma were entered into the study. […] The patients were on drug daily for a minimum of eight weeks.
The adverse events, which were reported (regardless of relationship), were of the nature and severity expected in this patient population.

PDE5 = biological target: T1, PDE5 (Homo sapiens, UniProt O76074); assay: cGMP PDE inhibition, PDE5; assay type: biochemical
T1 construct: partially purified cGMP-specific PDE isolated from HT-29 cells; endogenous in cells; host or cells: HT-29 cells (partially purified enzyme)
Description: Compounds of this invention are also PDE2 and PDE5 inhibitors as taught in part U.S. patent application Ser. No. 09/046,739 filed Mar. 24, 1998, now abandoned. Compounds can be tested for inhibitory effect on phosphodiesterase activity using either the enzyme isolated from any tumor cell line such as HT-29 or SW-480. […] (Thompson, W. J., Teraski, W. L., Epstein, P. M., Strada, S. J., Advances in Cyclic Nucleotide Research, 10:69-92, 1979, which is incorporated herein by reference). In brief, asolution of defined substrate ^3H-cGMP specific activity (0.2 μM; 100,000 cpm; containing 40 mM Tris-HCl (pH 8.0), 5 mM MgCl2 and 1 mg/ml BSA) is mixed with the drug to be tested in a total volume of 400μl. The mixture is incubated at 30° C. for 10 minutes with partially purified cGMP-specific PDE isolated from HT-29 cells. Reactions are terminated, for example, by boiling the reaction mixture for 75 seconds. After cooling on ice, 100 μl of 0.5 mg/ml snake venom (O. Hannah venom available from Sigma) is added and incubated for 10 min at 30° C. […] The amount of radioactivity in the breakthrough and the wash from the columns in then measured with a scintillation counter. The degree of PDE5 inhibition is determined by calculating the amount of radioactivity in drug-treated reactions and comparing against a control sample (a reaction mixture lacking the tested compound).

PDEI = assay: PDE inhibition, PDEI (similar protocols); assay type: biochemical
PDE4 = assay: PDE inhibition, PDE4 (similar protocols); assay type: biochemical
[3] = Seven-day dose-range finding study in rats; assay type: in vivo; settings: seven days
28-day study in rats = assay type: in vivo
Procedure: A 28-day study in rats was also carried out at 0, 50, 500 and 2000 mg/kg/day.

[4] = 91-day long-term safety assessment study in rats; assay type: in vivo
Description: These changes were not associated with any gross clinical abnormality.

[5] = 91-day oral study in dogs; assay type: in vivo
[6] = Single, escalating dose normal human volunteer clinical trial; assay type: in vivo; settings: normal human volunteers, oral single escalating dose, any dose (50 mg-700 TDD)
[7] = Phase I trial in patients with a range of solid tumors; assay type: in vivo
Procedure: Cycles were repeated without a treatment-free interval. Doses ranged from 100 to 800 mg/day.

[8] = rat, in vivo
[9] = dog, in vivo
Procedure: (§3) Therefore, these dogs were subsequently administered seven consecutive doses of 1000 mg/kg/day.

[10] = Acute toxicity study in rats; settings: rat, in vivo
[11] = Acute and seven-dose toxicity in dogs (capsules); settings: both, dog, in vivo, po, 1000 mg/kg
Procedure: as §3

[12] = 28 days, 50, 500 and 2000 mg/kg/day

PDE10 from 786-O, sequence (Q9Y233 290-1055 limits assumed): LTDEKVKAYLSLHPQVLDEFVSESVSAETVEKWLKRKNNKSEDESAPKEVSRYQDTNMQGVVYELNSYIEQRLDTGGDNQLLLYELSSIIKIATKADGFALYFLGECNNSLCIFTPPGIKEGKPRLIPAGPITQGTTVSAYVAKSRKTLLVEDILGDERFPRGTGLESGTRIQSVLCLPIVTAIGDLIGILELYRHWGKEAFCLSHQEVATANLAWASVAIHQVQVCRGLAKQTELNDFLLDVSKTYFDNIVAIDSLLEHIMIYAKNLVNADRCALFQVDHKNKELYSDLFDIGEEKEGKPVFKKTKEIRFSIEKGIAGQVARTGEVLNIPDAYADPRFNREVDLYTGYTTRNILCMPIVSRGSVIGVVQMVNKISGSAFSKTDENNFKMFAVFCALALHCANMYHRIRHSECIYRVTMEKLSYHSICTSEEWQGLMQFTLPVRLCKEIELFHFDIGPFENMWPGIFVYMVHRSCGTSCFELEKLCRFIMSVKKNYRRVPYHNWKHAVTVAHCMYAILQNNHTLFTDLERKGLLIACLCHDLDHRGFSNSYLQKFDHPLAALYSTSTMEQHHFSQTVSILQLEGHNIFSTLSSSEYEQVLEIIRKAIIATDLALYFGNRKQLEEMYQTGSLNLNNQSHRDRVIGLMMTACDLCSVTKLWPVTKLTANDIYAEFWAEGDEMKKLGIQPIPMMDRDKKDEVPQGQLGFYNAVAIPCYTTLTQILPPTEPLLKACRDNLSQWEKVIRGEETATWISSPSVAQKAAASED

Structure (SMILES): CC1=C(CC(=O)NCc2ccccc2)c2cc(F)ccc2C1=Cc1ccncc1 [Compound 38, (Z)-5-Fluoro-2-methyl-(4-pyridylidene)-3-(N-benzyl)indenylacetamide Hydrochloride]
- IC50 (PDE10 from 786-O): 3.7 µM
- IC50 (786-O cells [1]): 1 µM
- IC50 (786-O cells [2]): 1.1 µM
- Serious Adverse Events due to the drug (renal cell carcinoma; 400 mg daily, renal cell carcinoma patients): No Serious Adverse Event due to the drug was reported
- Patients who achieved stable disease (renal cell carcinoma; interim evaluation of 16 evaluable patients, 400 mg daily (200 mg twice daily), minimum of eight weeks): six
- IC50 (PDE5): 4 µM
- IC50 (PDEI): 3 µM
- IC50 (PDE4): 6 µM
- Signs of toxicity ([3]; 50 mg/kg/day): no observable signs of toxicity
- Treatment-related effects ([3]; 500 mg/kg/day): an increase in absolute and relative liver weights in female rats
- Treatment-related effects ([3]; 2000 mg/kg/day): labored breathing and/or abnormal respiratory sounds, decreased weights gains and food consumption in male rats, and increased liver weights in female rats
- Hematology, blood chemistry, microscopic pathology ([3]; any dose level (50, 500, 2000 mg/kg/day)): No hematological or blood chemistry changes nor any microscopic pathology changes
- Macroscopic tissue changes at necropsy (28-day study in rats; 28 days): No macroscopic tissue changes
- Liver weights (28-day study in rats; 28 days, 2000 mg/kg/day): statistically significant increase
- Thyroid weights (28-day study in rats; 28 days, 2000 mg/kg/day): statistically significant increases
- Body weight changes, ophthalmoscopic examinations, hematological and blood chemistry values, urinalysis (28-day study in rats; [12]): unremarkable
- Clinical observations (28-day study in rats; [12]): no abnormal clinical observations
- Histopathological evaluation of tissues (28-day study in rats; 28 days, generally a small number of animals at 2000 mg/kg/day, one female at 500 mg/kg/day): traces of follicular cell hypertrophy, increased numbers of mitotic figures (suggestive of possible cell proliferation) in the thyroid gland and mild centrilobular hypertrophy in the liver
- Slight liver and thyroid increases (28-day study in rats; 28 days, lower doses): not statistically significant
- Clinical biochemistry and hematology ([4]; 91 days): no changes
- Microscopic findings ([4]; 91 days): slight hepatocellular hypertrophy at 200 and 500 mg/kg/day groups, follicular cell hypertrophy at 500 mg/kg/day and increase in accumulation of hyalin droplets in the kidneys at 200 and 500 mg/kg/day group
- Organ weights ([4]; 91 days, males and females at 200 and 500 mg/kg/day): dose-related trend to increased liver and thyroid/parathyroid weights
- Toxicological effects ([4]; oral, 91 consecutive days, 50, 200 and 500 mg/kg/day): did not produce any major toxicological effects
- Microscopic alterations (liver) ([5]; 91 days): no microscopic alterations
- Tolerability ([5]; 91 days): well tolerated
- Feces ([5]; 91 days, 150 and 300 mg/kg/day groups): Orange discoloration of the feces
- Body weights ([5]; 91 days, highest dose group): Slightly lowered body weights
- Liver weights ([5]; 91 days, highest dose group): increased liver weights
- Toxicological effects ([5]; oral, 91 consecutive days, 50, 150 and 300 mg/kg/day): no toxicological effects
- Side effects [6]: no significant side effects
- Tolerability of therapy ([7]; 21 patients, orally twice daily for 28 consecutive days, 100 to 800 mg/day): well tolerated overall
- Maximum tolerated dose ([7]; 100 to 800 mg/day): not reached
- Toxicity ([7]; up to 800 mg TDD, orally, twice-daily schedule): minimally toxic
- Body weight gain ([8]; ip, 1000 mg/kg): reduced body weight gain
- Necropsy finding ([8]; ip, 1000 mg/kg): mesenteric adhesions seen in some animals
- Body weight gains ([8]; po, 2000 mg/kg): slightly reduced
- Signs of toxicity ([9]; 1000 mg/kg): no signs of toxicity
- Signs of drug-related effects ([9]; 1000 mg/kg/day): At no time in either dosing phase were any obvious signs of drug-related effects observed
- LD50 ([10]; ip, 1000 mg/kg): > 1000 mg/kg
- LD50 ([10]; po): > 2000 mg/kg
- LD50 [11]: > 1000 mg/kg
